Patent US8642656B2, “Calixarene-based peptide conformation mimetics, methods of use, and methods of making” (priority 2004, dated 2014)
Read-outs that look alike come from different tables or passages of the source. Ends that are not written are not given here.

How the values were obtained:
[1] = Hematocrit levels, first (MA148) study; format: in vivo, mice; conditions: 10 mg/kg; last day of treatment; vehicle 47±5.7
Description: (§1) As an indirect measurement of general toxicity, body weights of mice were monitored twice weekly, using a digital balance (Ohaus Florham, N.J.). To determine hematocrit levels, blood samples were extracted by tail vein bleedings one day after terminating treatment, and blood was collected in heparinized micro-hematocrit capillary lubes (Fisher Pittsburgh, Pa.). Samples were spun down for 10 minutes in a micro-hematocrit centrifuge (Clay-Adams; NY), and the amount of hematocrit was determined using an international microcapillary reader (IEC; Needham, Mass.).

LPS from K. pneumoniae = experiment: LPS neutralization assay (Limulus amoebocyte lysate, QCL-1000); format: biochemical, Klebsiella pneumoniae; conditions: read-out: IC50 values (μM) for LPS binding, Klebsiella
Source text: (§2) The ability of compounds to neutralize endotoxin was detected in vitro by using the chromogenic QCL-1000 kit from BioWhittaker, Inc. (Walkersville, Md.), and as described in their protocol. This Limulus amoebocyte lysate (LAL) assay is quantitative for Gram negative bacterial endotoxin (lipopolysaccharide, LPS). In this assay compounds that are active inhibit the LPS-mediated activation of a proenzyme whose active form would release p-nitroaniline (pNA) from a colorless synthetic substrate producing a yellow color (pNA) whose absorption is monitored spectrophotometrically at 405-410 nm. The initial rate of enzyme activation is proportional to the concentration of endotoxin present.
(§3) Variants of LPS from six Gram negative bacteria were used: E. coli serotypes 0111:B4 (Combrex, Walkersville, Md.) and 055:B5 (Sigma, St. Louis, Mo.); Klebsiella pneumoniae (List Biologies, San Jose, Calif.); Pseudomonas aeruginosa (List Biologies, San Jose, Calif.); Salmonella typhimurium (List Biologies, San Jose, Calif.), and Serratia marcascens (List Biologies, San Jose, Calif.). The concentration of compound required to neutralize a given LPS and therefore to inhibit the Limulus amoebocyte lysate driven by 0.04 units of any given LPS was determined by dose response curves fit by using a standard sigmoidal function to determined the JC50 value for each lopomimetic compound. The 0.04 units corresponds to 0.01 ng LPS from E. coli serotype 055:B5, 0.01 ng LPS from E. coli serotype 0111:B4, 0.003 ng LPS from K. pneumoniae, 0.01 ng LPS from P. aeruginosa, 0.03 ng LPS from S. typhimurium, and 0.03 ng LPS from S. marcascens.

MA148 tumor = experiment: TUNEL staining for total cell apoptosis, MA148 tumors; format: in vivo, mice; conditions: MA148, 10 mg/kg; mean ± standard error, 20 images
Description: (§4) To assess the extent of total cell apoptosis, tumor tissue sections were stained by using the TUNEL (terminal deoxyribonucleotidyl transferase-mediated dUTP-nick-end labeling) assay, which was performed according to the manufacturer's instructions (In situ cell death detection kit, fluorescein; TUNEL, Roche). After 1-hour incubation at room temperature, slides were washed with PBS and immediately imaged using an Olympus BX-60 fluorescence microscope at 200× magnification.

B16F10 tumor = experiment: TUNEL staining for total cell apoptosis, B16F10 tumors; format: in vivo, mice; conditions: B16F10, 10 mg/kg; mean ± standard error, 20 images
Description: as §4

LPS from S. marcascens = experiment: LPS neutralization assay (Limulus amoebocyte lysate, QCL-1000); format: biochemical, Serratia marcascens; conditions: read-out: IC50 values (μM) for LPS binding, Serratia
Source text: as §2, §3

[2] = Toxicity assays in tumor-bearing mice: behavior, body weight, organ morphology; format: in vivo; conditions: all in vivo tumor experiments
Description: as §1

B16F10 tumor cells = experiment: Proliferation of B16F10 tumor cells; format: cell-based, murine
LPS from P. aeruginosa = experiment: LPS neutralization assay (Limulus amoebocyte lysate, QCL-1000); format: biochemical, Pseudomonas aeruginosa; conditions: read-out: IC50 values (μM) for LPS binding, P.a.
Source text: as §2, §3

[3] = system: MA148 human ovarian carcinoma; conditions: 10 mg/kg/day; Dings et al., Cancer Lett 194; cited from earlier work
[4] = system: LPS from E. coli serotype 055:B5; experiment: LPS neutralization assay (Limulus amoebocyte lysate, QCL-1000); format: biochemical
Source text: as §2, §3

[5] = system: LPS from E. coli serotype 0111:B4; experiment: as above; format: biochemical; conditions: read-out: IC50 values (μM) for LPS binding, E. coli 0111:B4
Source text: as §2, §3

[6] = Hematocrit levels, study with B16 tumors in immune competent mice; format: in vivo; conditions: vehicle 51±1.4
Description: as §1

fibroblasts = experiment: Proliferation of fibroblasts (general cell toxicity check); format: cell-based
MA148 tumor vessels = experiment: Histological analysis of microvessel density, anti-CD31 staining, MA148 tumors; format: in vivo, mice; conditions: MA148, 10 mg/kg; mean ± standard error, 20 images
Description: (§5) Immunohistochemistry was used to assess microvessel density and the extent of total cell apoptosis. Approximately, tumors of the same size and with no apparent necrosis were selected for processing. On the last day of treatment mice were sacrificed and tumors were excised. Tumor tissue was embedded in tissue freezing medium (Miles Inc, Elkart, Ind.) and shock frozen in liquid nitrogen. Sections of tissue (10 μm thickness) were prepared for immunohistochemical analysis. For this, tissue sections were brought to room temperature, air dried overnight, and then fixed in acetone for 10 minutes. Slides were allowed to air dry for at least 30 minutes and were washed three limes for 5 minutes each in phosphate-buffered saline (PBS, pH 7.4). Samples were then blocked with PBS containing 0.1% bovine serum albumin and 3% human serum albumin for at least 30 minutes at room temperature in a humidified box. Samples were subsequently incubated with phycoerytrin (PE)-conjugated monoclonal antibody to CD31 (PECAM-1) in a 1:50 dilution (Pharmigen, San Diego, Calif.) to stain for microvessel density.
(§6) Digital images were stored and processed using Adobe Photoshop (Adobe Inc., Mountain View Calif.). Quantification of microvessel density, were determined as described previously (Dings et al., Cancer Res 63, 382-385 (2003)). Statistical analysis was performed using the Student's t-test.

B16F10 tumor vessels = experiment: Histological analysis of microvessel density, anti-CD31 staining, B16F10 tumors; format: in vivo, mice; conditions: B16F10, 10 mg/kg; mean ± standard error, 20 images
Description: as §5, §6

LPS from S. typhimurium = experiment: LPS neutralization assay (Limulus amoebocyte lysate, QCL-1000); format: biochemical, Salmonella typhimurium; conditions: read-out: IC50 values (μM) for LPS binding, Salmonella
Source text: as §2, §3

Hemolysis (Table 1) = format: cell-based; conditions: at 10^−5 M
SCK = experiment: Other cells, SCK (Table 1); format: cell-based
EC [7] = experiment: EC % apoptosis (Table 1); format: cell-based, human
E. coli J96 = experiment: Bactericidal assay on J96; format: cell-based; conditions: read-out: Bacterial activity on J96 IC50 (conc)
Source text: Pseudomonas aeruginosa type 1 is a clinical, smooth strain isolate stereotyped by using the scheme of Homma et al., Japan. J. Exp. Med. 46, 329-336 (1976) and maintained in the lab by monthly transfer on blood agar plates. E. coli J96, IA2, and H5 are smooth strain, uropathogenic clinical isolates kindly maintained and provided by J. R. Johnson and described in Johnson et al., J. Infect. Disease 173, 920-926 (1996) for J96 and IA2 and in Johnson et al., J. Infect. Disease 173, 746-749 (1996) for H5. J5 is an E. coli rough strain initially referenced by G. R. Siber and discussed in Warren et al., Infect. Immunity 55, 1668-1673 (1987) and is analogous to the smooth strain E. coli 0111:B4 used in the BioWhittaker LAL endotoxin detection and quantitation kit described below. Gram-positive MN8 and MNHO are two patient isolates of Staphylococcus aureus, which were kindly provided by P. M. Schlievert and described in Bohach et al., Rev. Infect. Diseases 11, 75-82 (1989) for MNHO and in Schlievert et al., J. Infect. Diseases 147, 236-242 (1983) for MN8. All cultures are maintained on nutrient agar plates.
Pyrogen-free solutions were used throughout the assay. Log phase bacteria were obtained by transferring an overnight culture or scraping crystals off-85° C glycerol stocks of overnight cultures. Bacteria were washed and resuspended in 0.9% sodium chloride with adjustment to an optical density at 650 nm which yields 3×10^8 CFU/ml. Bacteria were then diluted 1:10 in 0.08 M citrate phosphate buffer, pH 7.0 (prepared by mixing 0.08 M citric acid with 0.08 M dibasic sodium phosphate). Bacteria (0.15 ml) were incubated with the test compound in a final volume of 1.0 ml of buffer. The assay was done in 17×100 polypropylene tubes in a reciprocal water bath shaker at 37° C for 30 minutes. Following this 30 minute (min) incubation. 10-fold dilutions were made in 0.9% sodium chloride. Dilutions were done to 10^−4 and 20 μl of each dilution was streaked across an agar plate. Gram-positive organisms were plated on nutrient agar plates containing 2% agar and Gram-negative organisms were plated on MacConkey agar (2%). Plates were incubated overnight at 37° C and counted the next morning. The dilution containing 10-100 bacteria was counted and the number multiplied by 50 to adjust all counts to the number bacteria killed per milliliter. Compound concentrations were converted to logarithm base ten and graphed. Bactericidal activity was determined by dose response where LD50 values were determined by best fits of a sigmoidal curve to the dose response data.

EC [8] = experiment: EC % total cell death (Table 1); format: cell-based, human
endothelial cell (EC) = experiment: EC Proliferation Assay, [3H]thymidine incorporation (Example 36, Table 1); format: cell-based; conditions: read-out: EC proliferation IC50 (conc)
Description: Human umbilical vein derived EC(HUVEC) were harvested from normal human umbilical cords by perfusion with 0.125% trypsin/EDTA as described in Groenewegen et al., J. Exp. Med. 164, 131-143 (1986). For determination of quiescent EC phenotype isolated ECs were immediately fixed in 1% paraformaldehyde. Human microvascular ECs (MVECs) were isolated. ECs were cultured in fibronectin coated tissue culture flasks in culture medium (RPMJ-1640 with 20% human serum (HS), supplemented with 2 mM glutamine and 100 U/ml penicillin and 0.1 mg/ml streptomycin).
EC proliferation was measured using a [^3H]thymidine incorporation assay. ECs were seeded at 5000 cells/well in flatbottomed tissue culture plates and grown for 3 days, in the absence or presence of regulators, in culture medium. During the last 6 hours of the assay, the culture was pulsed with 0.5μ Ci [methyl-^3H]thymidine/well.

Solubility (Table 1) = format: physicochemical; conditions: H2O, at pH <7.0, r.t.
MA148 = experiment: Other cells, MA148 (Table 1); format: cell-based, human
Fibro = experiment: Other cells, Fibro (Table 1); format: cell-based

Compound: ANIKLSVQMKLFKRHLKWKIIVKLNDGRELSLD [βpep-25, reference compound]
- Hematocrit levels ±SD [1]: 47±2.8 percentage of red blood cells
- IC50 (LPS from K. pneumoniae; Table 2): 2 µM
- IC50 (LPS from K. pneumoniae; Table 3, errors estimated ±30%): 2 µM
- Apoptosis (MA148 tumor): 2418 ± 77 pixel counts per image
- Apoptosis (B16F10 tumor): 3303 ± 606 pixel counts per image
- IC50 (LPS from S. marcascens; Table 2): 4.1 µM
- IC50 (LPS from S. marcascens; Table 3, errors estimated ±30%): 4.1 µM
- signs of toxicity (behavior, weight gain, hematocrit), in words [2]: did not generally show signs of toxicity
- IC50 against B16F10 tumor cells (B16F10 tumor cells): neither demonstrated activity
- IC50 (LPS from P. aeruginosa; Table 2): 1.2 µM
- IC50 (LPS from P. aeruginosa; Table 3, errors estimated ±30%): 1.2 µM
- MA148 tumor inhibition shown previously [3]: 60 to 70%
- IC50 ([4]; Table 2, read-out: IC50 values (μM) for LPS binding, E. coli 055:B4): 2.5 µM
- IC50 ([4]; Table 3, errors estimated ±30%, read-out: IC50 values (μM) for LPS binding, E. coli 055:B5): 2.5 µM
- IC50 ([5]; Table 2): 2 µM
- IC50 ([5]; Table 3, errors estimated ±30%): 2 µM
- Hematocrit levels ±SD [6]: 52.5±3.5 percentage red blood cells
- concentration giving 50% growth inhibition, fibroblasts (fibroblasts): no delectable effects
- Branch Points (MA148 tumor vessels): 2.0 ± 0.5 pixel counts per image
- End Points (MA148 tumor vessels): 16.6 ± 1.8 pixel counts per image
- Vessel Density (MA148 tumor vessels): 7415 ± 686 pixel counts per image
- Vessel Length (MA148 tumor vessels): 4.9 ± 0.6 pixel counts per image
- Branch Points (B16F10 tumor vessels): 4.5 ± 0.6 pixel counts per image
- End Points (B16F10 tumor vessels): 31.9 ± 3.8 pixel counts per image
- Vessel Density (B16F10 tumor vessels): 14050 ± 1826 pixel counts per image
- Vessel Length (B16F10 tumor vessels): 10.2 ± 1.2 pixel counts per image
- IC50 (LPS from S. typhimurium; Table 2): 2.5 µM
- IC50 (LPS from S. typhimurium; Table 3, errors estimated ±30%): 2.5 µM

Compound: CN(C)CCNC(=O)COc1c2cccc1Cc1cccc(c1OCC(=O)NCCN(C)C)Cc1cccc(c1OCC(=O)NCCN(C)C)Cc1cccc(c1OCC(=O)NCCN(C)C)C2 [drawing 7]
- Hemolysis (Hemolysis (Table 1)): None at 10^−5 M
- Other cells 25 μM, SCK (SCK): 40%
- EC % Apoptosis 25 μM (EC [7]): No effect
- IC50 (E. coli J96): > 3.8 µM
- EC % total cell death (EC [8]): No effect
- IC50 (endothelial cell (EC)): 2.5 µM
- Solubility (Solubility (Table 1)): H2O up to 30 mg/ml at pH <7.0, r.t.
- Other cells 25 μM, MA148 (MA148): 80%
- Other cells 25 μM, Fibro (Fibro): 0%
